Assay: In vitro intrinsic binding affinity at platelet activating factor receptor using rabbit platelet membranes

`COc1cc(C(C)CCCc2ccc(F)cc2)cc2c1C1=C(CCN(Cc3ccccn3)C1)C(C)(C)O2` (stereo unspecified) and `COc1cc(C(C)CCCc2ccc(F)cc2)cc2c1C1=C(CCN(CCC(=O)O)C1)C(C)(C)O2` (stereo unspecified) are within 1.5-fold of each other in Ki: 4.21 µM for the first, 4.4 µM for the second.

Going from `CC1CSC2=C1c1c(O)cc(C(C)CCCc3ccc(F)cc3)cc1OC2(C)C` (stereo unspecified) to `C#CCN1CCC2=C(C1)c1c(O)cc(C(C)CCCc3ccc(F)cc3)cc1OC2(C)C` (stereo unspecified), the Ki falls from 43.8 µM to 3.25 µM (13-fold).

Compared with `CNC(=O)CN(C)CC1=CC(C)(C)Oc2cc(C(C)CCCc3ccc(F)cc3)cc(O)c21` (stereo unspecified), `CNC(=O)CN1CCC2=C(C1)c1c(O)cc(C(C)CCCc3ccc(F)cc3)cc1OC2(C)C` (stereo unspecified) is 4.7-fold lower in Ki: 1.57 µM for the first, 0.331 µM for the second. The second binds more tightly here.

First: COc1cc(C(C)CCCc2ccc(F)cc2)cc2c1C1=C(CCN(CCCCCC(=O)O)C1)C(C)(C)O2 (stereo unspecified)
Second: COc1cc(C(C)CCCc2ccc(F)cc2)cc2c1C1=C(CCN(CCCCC(=O)O)C1)C(C)(C)O2 (stereo unspecified)
The Ki of the first is 4.5-fold higher: 25 µM for the first, 5.5 µM for the second.

Compared with `CNC(=O)CN1CCC(C(C)(C)O)=C(c2c(O)cc(C(C)CCCc3ccc(F)cc3)cc2O)C1` (stereo unspecified), `CNC(=O)CN1CCC2=C(C1)c1c(OC)cc(C(C)CCCc3ccc(F)cc3)cc1OC2(C)C` (stereo unspecified) is 170-fold lower in Ki: 23.5 µM for the first, 0.142 µM for the second. The second binds more tightly here.

Compared with `CCCCCC(C)C(C)c1cc(O)c2c(c1)OC(C)(C)C1=C2CN(CC(=O)NC)CC1` (stereo unspecified), `CNC(=O)CN1CCC2=C(C1)c1c(O)cc(C(C)C)cc1OC2(C)C` is 2.4-fold higher in Ki: 3.68 µM for the first, 9 µM for the second. The first binds more tightly here.

Compared with `CNC(=O)CN1CCC2=C(C1)c1c(OCC(=O)O)cc(C(C)CCCc3ccc(F)cc3)cc1OC2(C)C` (stereo unspecified), `CNC(=O)CCCN1CCC2=C(C1)c1c(O)cc(C(C)CCCc3ccc(F)cc3)cc1OC2(C)C` (stereo unspecified) is 22-fold higher in Ki: 0.925 µM for the first, 20.7 µM for the second.

`CC(CCCc1ccc(F)cc1)c1cc(O)c2c(c1)OC(C)(C)C1=C2CN(CC(=O)N(C)C)CC1` (stereo unspecified) and `CC(CCCc1ccc(F)cc1)c1cc(O)c2c(c1)OC(C)(C)C1=C2CN(C(=O)CO)CC1` (stereo unspecified) are within 1.5-fold of each other in Ki: 15.8 µM for the first, 20.5 µM for the second.

— BindingDB's records for doi:10.1021/jm00089a016 (Abbott Laboratories, 1992)
